Assay: Effect of sodium chloride on solubility of the drug
Type: physicochemical
Details: apparently due to salt formation

In the case of `CCc1nc2c(N)nc3ccccc3c2n1CCCCNS(C)(=O)=O` [N-[4-(4-amino-2-ethyl-1H-imidazo[4,5-c]quinolin-1-yl)butyl]methanesulfonamide], the “Solubility of the drug in presence of sodium chloride” value is reported as “reduces solubility of the drug”.

Source: patent publication US20110021554A1, “IMMUNE RESPONSE MODIFIER FORMULATIONS AND METHODS” (priority 2004, published 2011)
